# Source: US20220144853A1, “IMIDAZOLINE DERIVATIVES AS CXCR4 MODULATORS” (Université de Paris, priority 2019, published 2022)
# Where a name gives a salt, the structure may show the parent alone.
# Legend:
# [1] = tested on: IFN production by activated immune cells (PBMC); assay: IFN production by R848-activated PBMC from healthy donors, STING-37 reporter cell line; assay type: cell-based, human; settings: different concentrations, R848, STING-37 reporter, FIG. 1
# Description: 1) The blood from healthy donors was obtained from two sources. Either from “Etablissement Français du Sang” (convention #07/CABANEL/106), Paris, France or from the Apheresis and Blood Donation Unit at the Institute of Transfusion Medicine and Immunogenetics (IKT), Ulm, Germany after being approved by the Institutional Review Board at Ulm University.
# In vitro experiments were performed using human peripheral blood mononuclear cells (PBMCs) isolated by density centrifugation from peripheral blood leukocyte separation medium (Cambrex, Gaithersburg, Md.).
# PBMCs were cultured in RPMI 1640 (Invitrogen, Gaithersburg, Md.) (R10) containing 10% heat-inactivated fetal bovine serum, 100 U/mL Penicilium and 100 μg/mL Streptomycin (1% Pen-Strep) and 1 mM glutamine (Hyclone, Logan, Utah).
# 1) The PBMCs used herein were prepared as described in part A “immune cells preparation”, section 1) above. PBMCs were seeded at 2.10^6/mL. […]
# 1) To quantify the secretion of functional IFN, a biological assay based on a stable cell line where luciferase reporter gene is controlled by five Interferon-Stimulated Response Elements (STING37 cell line) was used. […] After 24 h of culture, luciferase activity was determined by adding 50 μL of Bright-Glo reagents (Promega) to culture wells and measuring bioluminescence with a luminometer.
# [2] = tested on: TNFα production by monocytes (CD14+ cells); assay: Requirement of CXCR4 (siRNA knockdown or AMD3100) for the effect on TNFα production by monocytes from healthy donors; assay type: cell-based, human; settings: AMD3100 20 μM 1 h, example 1 5 μM or example 2 1 μM, R848, FIG. 5B
# Description: Monocytes were purified from PBMCs by positive selection with the CD14 microbeads (Miltenyi Biotec) and MACS column.
# 1) The PBMCs used herein were prepared as described in part A “immune cells preparation”, section 1) above. PBMCs were seeded at 2.10^6/mL. […] Cells were then stimulated with the TLR7/8 agonist resiquimod—R848 (Invivogen) at 5 μg/mL. When stated, AMD (20 μM) (Sigma-Aldrich, MO, USA) was added to the cells 1 h before incubation with example 1.
# Isolated monocytes were seeded at 10^5 cells/100 μL in 96-well plates and incubated at 37° C. Cyclophilin B (control) and CXCR4 small interfering RNA (siRNA) (Smart Pool, Dharmarcon) was diluted in DOTAP (Roche Applied Sciences). The mix was gently mixed and incubated at room temperature for 15 minutes. After incubation, the mix was added to cells in culture at a final concentration of 160 nM. Finally, cells were incubated at 37° C. for 24 hours before stimulation.
# R848-stimulated PBMCs were washed in PBS and then incubated with a viability stain (Zombie-Aqua, Biolegend) for 30 min at 4° C. After washing, the cells were resuspended in PBS containing 2% FCS and 2 mM EDTA and stained with the extracellular mix using APC-anti-BDCA4 (clone 12C2), FITC-anti-CD123 (clone 6H6), PerCP.cy5.5-anti-CD56 (clone 5.1H11), BV421-anti-HLADR (clone L243), PE.cy7-anti-CD19 (clone 4G7), APC-cy.7-anti-CD14 (clone M5E2) all from Biolegend and used at 1/200 and V500-anti-CD3 (BD Bioscience, clone SP34-2, 1/200). For the TNFα intracellular staining a Fixation/Permeabilization Solution Kit (BD Cytofix/Cytoperm) was used according to the manufacturer's protocol. Briefly, the cells were fixed for 10 min at 4° C. with 100 μL of the Fixation/Permeabilization solution then washed and stained in 100 μL of the BD Perm/Wash Buffer containing TNFα-APC (Miltenyi, 1/500) antibody for 1 h at 4° C. Data acquisition was performed on a Canto II flow cytometer using Diva software (BD Biosciences, San Jose, Calif.). FlowJo software (Treestar, Ashland, Oreg.) was used to analyze data.
# IL-1β = assay: Cytokine production by R848-activated PBMCs, LEGENDplex Human Inflammation panel 1: IL-1β; assay type: cell-based; settings: Homo sapiens, PBMC, PBMCs from 2 healthy donors, R848 overnight, read-out: IC50 (μM) 1L-1β
# Description: (§1) 2) The PBMCs used herein were prepared as described in part A “immune cells preparation”, section 2) above. PBMCs were seeded at 4.10^6/mL. […] Cells were then stimulated with the TLR7/8 agonist resiquimod—R848 (Sigma-Aldrich, MO, USA) at 5 μg/mL.
# (§2) Cytokine expression levels were assessed using LEGENDplex Human inflammation panel 1 Kit (BioLegend, California, USA), which is a bead-based multiplex assay, using fluorescence-encoded beads. […] First, supernatants of R848-stimulated PBMCs were harvested after 24 h of stimulation and frozen at −20° C. for storage. Supernatants were dispensed into a 96-well V-bottom plate. Protocol pursued as per manufacturer recommendations (Manual for BioLegend LEGENDplex, Multi-Analyte Flow Assay Kit, Human Inflammation Panel 1, version 750000393_R01).
# IFN-γ = assay: Cytokine production by R848-activated PBMCs, LEGENDplex Human Inflammation panel 1: IFN-γ; assay type: cell-based; settings: Homo sapiens, PBMC, PBMCs from 2 healthy donors, R848 overnight
# Description: as §1, §2
# IL-10 = assay: Cytokine production by R848-activated PBMCs, LEGENDplex Human Inflammation panel 1: IL-10; assay type: cell-based; settings: Homo sapiens, PBMC, PBMCs from 2 healthy donors, R848 overnight
# Description: as §1, §2
# IL-12p70 = assay: Cytokine production by R848-activated PBMCs, LEGENDplex Human Inflammation panel 1: IL-12p70; assay type: cell-based; settings: Homo sapiens, PBMC, PBMCs from 2 healthy donors, R848 overnight
# Description: as §1, §2
# IL-23 = assay: Cytokine production by R848-activated PBMCs, LEGENDplex Human Inflammation panel 1: IL-23; assay type: cell-based; settings: Homo sapiens, PBMC, PBMCs from 2 healthy donors, R848 overnight
# Description: as §1, §2
compound,measurement,setting,value
"CC1(C)CN2C(CSC3=NCC(C)(C)N3)=CSC2=N1 [Example 2, 3-(((5,5-dimethyl-4,5-dihydro-1H-imidazol-2-yl)thio)methyl)-6,6-dimethyl-5,6-dihydroimidazo[2,1-b]thiazole dihydrochloride]",reduction of IFN production by activated PBMCs,[1],100%
same,TNFα production by activated monocytes in the presence of the example after pre-incubation with AMD3100,[2],restored
same,IC50,IL-1β,32 µM
same,IC50,IFN-γ,26 µM
same,IC50,IL-10,9.1 µM
same,IC50,IL-12p70,14 µM
same,IC50,IL-23,4.7 µM
